The text below walks through data of patent publication US20150164899A1, “INHIBITION OF ADAPTOR ASSOCIATED KINASE 1 FOR THE TREATMENT OF PAIN” (priority 2012, published 2015).

A word on the IC50: it is the concentration that inhibits the measured activity by half.

Assay [1] deals with T1, AAK1 (full length human) in transfected HEK293F cells (Homo sapiens, UniProt Q2M2I8).
T1 construct: expressed in transfected cells; host or cells: HEK293F
The assay is described as follows: HEK281 cell-based assay (phospho-mu2 Western blot). The following applies: read-out: CBA IC50. A general note: In western blotting, separated proteins are transferred to a membrane and probed.

For assay [2], the target named is T2, GST-Xa-hAAK1 (Homo sapiens, UniProt Q2M2I8).
T2 construct: made in house
T2 sequence (Q2M2I8 whole entry): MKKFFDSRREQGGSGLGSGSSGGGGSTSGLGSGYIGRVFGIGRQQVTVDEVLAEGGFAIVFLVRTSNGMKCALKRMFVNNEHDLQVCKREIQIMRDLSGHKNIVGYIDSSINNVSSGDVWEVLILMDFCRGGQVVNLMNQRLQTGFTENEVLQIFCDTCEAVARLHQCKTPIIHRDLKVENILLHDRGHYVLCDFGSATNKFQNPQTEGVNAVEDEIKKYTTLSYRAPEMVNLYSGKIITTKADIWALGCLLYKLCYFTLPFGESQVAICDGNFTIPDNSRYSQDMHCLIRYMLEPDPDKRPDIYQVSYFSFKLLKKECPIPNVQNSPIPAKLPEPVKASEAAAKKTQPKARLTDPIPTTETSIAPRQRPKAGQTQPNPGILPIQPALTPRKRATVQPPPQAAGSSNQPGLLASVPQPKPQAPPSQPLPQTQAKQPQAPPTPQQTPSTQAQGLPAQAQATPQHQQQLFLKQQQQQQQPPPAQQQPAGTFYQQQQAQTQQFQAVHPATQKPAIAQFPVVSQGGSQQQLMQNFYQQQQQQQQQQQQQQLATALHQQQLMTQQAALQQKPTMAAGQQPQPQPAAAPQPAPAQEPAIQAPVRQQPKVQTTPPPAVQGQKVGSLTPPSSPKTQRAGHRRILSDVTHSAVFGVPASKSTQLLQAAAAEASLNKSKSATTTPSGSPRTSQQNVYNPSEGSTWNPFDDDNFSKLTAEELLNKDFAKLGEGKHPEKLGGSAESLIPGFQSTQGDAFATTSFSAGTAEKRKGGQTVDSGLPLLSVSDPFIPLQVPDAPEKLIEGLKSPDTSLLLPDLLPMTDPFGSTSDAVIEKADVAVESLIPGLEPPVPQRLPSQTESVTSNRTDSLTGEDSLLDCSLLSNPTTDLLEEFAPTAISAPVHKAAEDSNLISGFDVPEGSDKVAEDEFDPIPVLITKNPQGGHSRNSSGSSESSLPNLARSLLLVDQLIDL
The assay is described as follows: Caliper assay. In kind it is biochemical. The settings on record: aryl ethers. The procedure: The assays were performed in U-bottom 384-well plates. The final assay volume was 30 μl prepared from 15 μl additions of enzyme and substrates (fluoresceinated peptide (5-FAM)-Aha-[…]-NH2 and ATP) and test compounds in assay buffer (10 mM Tris-HCL pH 7.4, 10 mM MgCl2, 0.01% Tween-20 and 1.0 mM DTT). The reactions were initiated by the combination of bacterially expressed, GST-Xa-hAAK1 with substrates and test compounds. The reactions were incubated at room temperature for 3 hours and terminated by adding 60 μl of 35 mM EDTA buffer to each sample. The reactions were analyzed on the Caliper LabChip 3000 (Caliper, Hopkinton, Mass.) by electrophoretic separation of the fluorescent substrate and phosphorylated product. […] The final concentration of reagents in the assays are ATP, 22 μM; (5-FAM)-Aha-[…]-NH2, 1.5 μM; GST-Xa-hAAK1, 3.5 nM; and DMSO, 1.6%. Dose response curves were generated to determine the concentration required inhibiting 50% of kinase activity (IC50). Compounds were dissolved at 10 mM in dimethylsulfoxide (DMSO) and evaluated at eleven concentrations. IC50 values were derived by non-linear regression analysis.

For assay [3], the system named is formalin-induced paw flinching. The assay is described as follows: formalin paw test. Format: in vivo. The following applies: mice. The procedure:
See example 5.4.1, above. The same test was used to confirm that the administration of an AAK1 inhibitor can also affect pain response.
Mice were tested for nociception with Automatic Nociception Analyzers (purchased from the Ozaki lab at University of California, San Diego). A metal band was placed around the left hind paw of each mouse with superglue 30 minutes prior to testing. After the 30-minute acclimation period, 20 μl of 5% formalin was subcutaneously injected in the dorsal surface of the left hind paw. Mice were individually housed in cylindrical chambers for 45 minutes. Fresh 5% formalin solution was prepared by diluting formaldehyde (Formalde-fresh 20%, Fisher Scientific, Fair Lawn, N.J.) with distilled water. Investigatory compounds were administered 30 minutes prior to formalin injection.
A computer software recorded flinches per minute, total flinches for Phase I (acute phase=first 8 minutes), and total flinches for Phase II (tonic phase between 20-40 minutes) through an electromagnetic field. See Yaksh T L, Ozaki G, McCumber D, Rathbun M, Svensson C, Malkmus S, Yaksh M C. An automated flinch detecting system for use in the formalin nociceptive bioassay. J Appl Physiol., 2001; 90:2386-402.
Various compounds of the invention were tested at different doses. Gabapentin and pregabalin were used as positive controls. Results are shown below in Table 2, wherein “*” means an effect equal to or greater than 50 percent of that of gabapentin at 200 mpk, “**” means an effect equal to or greater than 100 percent of that of gabapentin at 200 mpk, “sc” means subcutaneous administration, “ip” means in intraperitoneal administration, and “po” means oral administration.

Setting [4] is: HEK281 cell-based assay, pyrazolo[1,5-a]pyrimidine-based inhibitors.

Molecules are shown by their SMILES. Read-outs that look alike come from different tables or passages of the source. A value given as a limit tells only on which side of the number the result lay.

T1 sequence (Q2M2I8 1-863 isoform Q2M2I8-2): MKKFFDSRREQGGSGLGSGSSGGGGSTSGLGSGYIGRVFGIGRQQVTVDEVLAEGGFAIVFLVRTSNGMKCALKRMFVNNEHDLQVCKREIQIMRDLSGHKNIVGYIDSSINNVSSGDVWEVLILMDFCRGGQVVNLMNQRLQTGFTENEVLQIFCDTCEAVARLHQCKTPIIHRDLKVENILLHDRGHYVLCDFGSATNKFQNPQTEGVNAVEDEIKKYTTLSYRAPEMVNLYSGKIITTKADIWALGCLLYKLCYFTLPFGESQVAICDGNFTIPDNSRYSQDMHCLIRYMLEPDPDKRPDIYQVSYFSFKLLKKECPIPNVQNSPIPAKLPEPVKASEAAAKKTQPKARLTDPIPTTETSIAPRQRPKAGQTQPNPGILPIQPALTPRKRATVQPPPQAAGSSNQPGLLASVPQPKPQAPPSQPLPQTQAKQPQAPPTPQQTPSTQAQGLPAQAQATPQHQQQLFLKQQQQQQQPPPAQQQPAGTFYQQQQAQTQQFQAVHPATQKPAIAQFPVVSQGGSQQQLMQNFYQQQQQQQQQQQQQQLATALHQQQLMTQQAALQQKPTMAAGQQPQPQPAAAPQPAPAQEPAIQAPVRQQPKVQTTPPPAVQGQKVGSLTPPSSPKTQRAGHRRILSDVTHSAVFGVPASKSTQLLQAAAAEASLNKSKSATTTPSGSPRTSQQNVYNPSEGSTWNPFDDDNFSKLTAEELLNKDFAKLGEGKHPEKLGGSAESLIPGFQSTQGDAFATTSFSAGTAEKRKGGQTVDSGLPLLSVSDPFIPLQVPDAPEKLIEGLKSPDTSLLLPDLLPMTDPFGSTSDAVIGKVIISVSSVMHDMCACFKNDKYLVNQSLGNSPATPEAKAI

On to `CCc1cc2c(cc1OC[C@@H](N)CC(C)C)OC(CC)c1cnccc1-2` (some centres unmarked), for which the IC50 in assay [1] (aryl ethers, numeric values) was 0.018 µM; in assay [2] (class symbols), 0.01 to 0.1 µM.

On to `CC(C)(C)OCCNc1ccc2ncc(-c3ccc(CN)cc3)n2n1` [3-(4-(aminomethyl)phenyl)-N-(2-(tert-butoxy)ethyl)imidazo[1,2-b]pyridazin-6-amine], for which the Effect result in assay [3] (60 mpk sc) is “** (an effect equal to or greater than 100% of that of gabapentin at 200 mpk)”.

For the compound `CC(C)C[C@H](N)COc1ccc2c(c1)OC(C)c1cnccc1-2` (some centres unmarked) [drawing 31], the IC50 in assay [1] (aryl ethers, numeric values) is 0.025 µM; in assay [2] (class symbols), 0.01 to 0.1 µM.

For `CN(CCNc1ccc2ncc(-c3ccc(C(N)=O)cc3)n2n1)C(=O)OC(C)(C)C` [tert-butyl (2-((3-(4-carbamoylphenyl)imidazo[1,2-b]pyridazin-6-yl)amino)ethyl)(methyl)carbamate], the Effect result in assay [3] (60 mpk sc) and in assay [3] (100 mpk po) was “** (an effect equal to or greater than 100% of that of gabapentin at 200 mpk)” in each case.

`N[C@@H](COc1ccc2c(c1)OCc1cnccc1-2)Cc1ccccc1`: the IC50 in assay [2] (numeric values) came out at 0.293 µM.

On to `CC(C)C[C@@H](N)COc1ccc2c(c1)OCc1cnccc1-2` [(R)-1-(5H-chromeno[3,4-c]pyridin-8-yloxy)-4-methylpentan-2-amine], for which the Effect was 45% in assay [3] (10 mpk sc, given as a number, relative to gabapentin at 200 mpk) and “* (an effect equal to or greater than 50% of that of gabapentin at 200 mpk)” in assay [3] (30 mpk sc).

With `CC(C)C[C@@H](N)COc1ccc2c(c1)OC(C)c1cnccc1-2` (some centres unmarked), the IC50 in assay [1] (aryl ethers, numeric values) is above 0.3 µM; in assay [2] (class symbols) it was 0.01 to 0.1 µM.

As to `CC(C)C[C@H](N)COc1ccc2c(c1)OC(C)c1cnccc1-2` (some centres unmarked) [drawing 30], in assay [2] (numeric values), the IC50 came out at 0.0049 µM.

`CC(C)C[C@H](N)COc1cc2c(cc1Br)-c1ccncc1CO2`: the IC50 in assay [1] (aryl ethers, numeric values) is 0.0025 µM; in assay [2] (numeric values) it was 0.00086 µM.

Turning to `COc1ccccc1-c1cnc2ccc(N3CCN(C(=O)OC(C)C)CC3)nn12` [isopropyl 4-(3-(2-methoxyphenyl)imidazo[1,2-b]pyridazin-6-yl)piperazine-1-carboxylate], the Effect entry in assay [3] (30 mpk sc) and in assay [3] (60 mpk sc) was “** (an effect equal to or greater than 100% of that of gabapentin at 200 mpk)” in each case.

`CC(C)C[C@H](N)COc1ccc2c(c1)OC(C1CC1)c1cnccc1-2` (some centres unmarked) [drawing 37]: the IC50 is 0.018 µM in assay [1] (aryl ethers, numeric values) and 0.001 to 0.01 µM in assay [2] (class symbols).

For the compound `CC(C)(C)OC(=O)N1CCC[C@H]1CNc1ccn2ncc(-c3ccncc3)c2n1` [(S)-tert-butyl 2-(((3-(pyridin-4-yl)pyrazolo[1,5-a]pyrimidin-5-yl)amino)methyl)pyrrolidine-1-carboxylate], the half-inhibitory concentration (IC50) in assay [1] (setting [4]) is at most 0.01 µM. Moreover, the Effect result in assay [3] (30 mpk sc) is “** (an effect equal to or greater than 100% of that of gabapentin at 200 mpk)”.

In the case of `NCc1ccc(-c2cnc3ccc(NCCOC4CCCC4)nn23)cc1` [3-(4-(aminomethyl)phenyl)-N-(2-(cyclopentyloxy)ethyl)imidazo[1,2-b]pyridazin-6-amine], the Effect entry in assay [3] (60 mpk sc) and in assay [3] (100 mpk sc) was “** (an effect equal to or greater than 100% of that of gabapentin at 200 mpk)” throughout.

On to `CCCCNc1ccc2ncc(-c3ccc(C(=O)NCCN)cc3)n2n1` [N-(2-aminoethyl)-4-(6-(butylamino)imidazo[1,2-b]pyridazin-3-yl)benzamide], for which the Effect result in assay [3] (30 mpk ip) is “** (an effect equal to or greater than 100% of that of gabapentin at 200 mpk)”.

`COc1ncccc1-c1cnn2ccc(N3CCN(C(=O)OC(C)C)CC3)nc12` [isopropyl 4-(3-(2-methoxypyridin-3-yl)pyrazolo[1,5-a]pyrimidin-5-yl)piperazine-1-carboxylate]: the Effect entry in assay [3] (10 mpk po) is recorded as “* (an effect equal to or greater than 50% of that of gabapentin at 200 mpk)”; in assay [3] (30 mpk po), “** (an effect equal to or greater than 100% of that of gabapentin at 200 mpk)”.

With `CC(C)C[C@H](N)COc1ccc2c(c1)OC(C1CC1)c1cnccc1-2` (some centres unmarked) [drawing 36], the IC50 in assay [2] (class symbols) was in the range of 0.1 to 1 µM.

Take `CC(C)(C)OC(=O)N1CCC[C@H]1CNc1ccc2ncc(-c3ccc(CN)cc3)n2n1` [(S)-tert-butyl 2-(((3-(4-(aminomethyl)phenyl)imidazo[1,2-b]pyridazin-6-yl)amino)methyl)pyrrolidine-1-carboxylate]: the Effect entry in assay [3] (60 mpk sc) is listed as “** (an effect equal to or greater than 100% of that of gabapentin at 200 mpk)”.

Take `CC(C)(C)OCCCNc1ccc2ncc(-c3ccc(CN)cc3)n2n1` [3-(4-(aminomethyl)phenyl)-N-(3-(tert-butoxy)propyl)imidazo[1,2-b]pyridazin-6-amine]: the Effect result in assay [3] (60 mpk sc) is “** (an effect equal to or greater than 100% of that of gabapentin at 200 mpk)”.

For `CC(C)C[C@H](N)COc1ccc2c(c1)OCc1cnc(N)cc1-2`, the IC50 in assay [1] (aryl ethers, class symbols) was in the range of 0.001 to 0.01 µM; in assay [2] (class symbols) it was 0.001 to 0.01 µM.

For the compound `COc1ccccc1-c1cnn2ccc(NC[C@@H]3CCCN3C(=O)OC(C)(C)C)nc12` [(S)-tert-butyl 2-(((3-(2-methoxyphenyl)pyrazolo[1,5-a]pyrimidin-5-yl)amino)methyl)pyrrolidine-1-carboxylate], the IC50 in assay [1] (setting [4]) was at most 0.01 µM. Also, the Effect result in assay [3] (10 mpk sc) and in assay [3] (60 mpk sc) was “* (an effect equal to or greater than 50% of that of gabapentin at 200 mpk)” in each case.

Take `COc1ccccc1-c1cnn2ccc(N3CCN(C(=O)OC(C)C)CC3)nc12` [isopropyl 4-(3-(2-methoxyphenyl)pyrazolo[1,5-a]pyrimidin-5-yl)piperazine-1-carboxylate]: the Effect entry in assay [3] (30 mpk sc) is listed as “** (an effect equal to or greater than 100% of that of gabapentin at 200 mpk)”.

Regarding `COc1ncccc1-c1cnc2ccc(N3CC[C@H](N(C)C(=O)OC(C)C)C3)nn12` [(S)-isopropyl (1-(3-(2-methoxypyridin-3-yl)imidazo[1,2-b]pyridazin-6-yl)pyrrolidin-3-yl)(methyl)carbamate], the Effect result in assay [3] (10 mpk po) is reported as “* (an effect equal to or greater than 50% of that of gabapentin at 200 mpk)”; in assay [3] (30 mpk po) it was “** (an effect equal to or greater than 100% of that of gabapentin at 200 mpk)”; in assay [3] (60 mpk po) it was “** (an effect equal to or greater than 100% of that of gabapentin at 200 mpk)”.

`NCC1(CC(=O)O)CCCCC1` [Gabapentin, reference compound]: the Effect result in assay [3] (50 mpk sc) is on record as “* (an effect equal to or greater than 50% of that of gabapentin at 200 mpk)”; in assay [3] (200 mpk sc), “** (an effect equal to or greater than 100% of that of gabapentin at 200 mpk)”.

In the case of `CCCCNc1ccc2ncc(-c3ccc(-c4nnn[nH]4)cc3)n2n1` [3-(4-(1H-tetrazol-5-yl)phenyl)-N-butylimidazo[1,2-b]pyridazin-6-amine], the Effect result in assay [3] (60 mpk ip) is listed as “** (an effect equal to or greater than 100% of that of gabapentin at 200 mpk)”.

Consider `CC(C)C[C@H](CN)CC(=O)O` [Pregabalin, reference compound], for which the Effect result in assay [3] (50 mpk sc) is “* (an effect equal to or greater than 50% of that of gabapentin at 200 mpk)”.

Turning to `CC(C)C[C@@H](N)COc1ccc2c(c1)OCc1cnccc1-2` [drawing 25], the IC50 in assay [2] (class symbols) lay in the range of 0.01 to 0.1 µM.

As to `CCC1Oc2cc(OC[C@@H](N)CC(C)C)ccc2-c2ccncc21` (some centres unmarked), the IC50 in assay [1] (aryl ethers, numeric values) came to 0.056 µM; in assay [2] (numeric values), 0.012 µM.

For `CC(C)(C)OC(=O)N1CCC[C@H]1CNc1ccc2ncc(Br)n2n1` [(S)-tert-butyl 2-(((3-bromoimidazo[1,2-b]pyridazin-6-yl)amino)methyl)pyrrolidine-1-carboxylate], the Effect entry in assay [3] (30 mpk sc) and in assay [3] (60 mpk sc) was “** (an effect equal to or greater than 100% of that of gabapentin at 200 mpk)” throughout.
